This is an account of results in patent US20150237857A1, “ANTIBACTERIAL INHIBITORS” (MCMASTER UNIVERSITY, priority 2012, published 2015).

As usually defined, the inhibition is the relative decrease from the control value, in per cent. A word on the MIC: it is the least concentration at which growth counts as inhibited.

The target in assay [1] is recombinant E. coli BioA (Escherichia coli, UniProt P12995). The assay is described as follows: BioA inhibition through a feeding assay of a bioA auxotroph. It counts as biochemical. The following applies: relative to DMSO control. As to the method:
To determine if the step catalyzed by BioA was the target of this inhibitor, the inhibitory activity of MAC-0013772 against recombinant E. coli BioA was assayed through a feeding assay of a bioA auxotroph.

Assay [2] relates to Mycobacteria smegmatis. The assay is described as follows: MIC against Mycobacteria smegmatis in absence and presence of biotin. It counts as cell-based.
The test system of assay [3] is E. coli MG1655. The assay is described as follows: Minimum inhibitory concentration (MIC) determination. The following applies: for MIC: Escherichia coli.
Description: The MIC values were determined in liquid minimal media and minimal media supplemented with amino acids, vitamins and nucleobases.
A single colony of E. coli MG1655 was grown overnight in 5 ml of M9 minimal media. The saturated culture was diluted 1/50 in fresh minimal media and allowed to grow until the OD600 reached ˜0.4. […] After mixing of the bacterial culture with the compounds, the OD600 of the plates was read using Envision to account for background absorbance. The plates were then incubated in a 37° C. stationary incubator for 16 hours before measuring their OD600. After subtracting any background absorbance contributed by colored or precipitated compounds, the MIC was defined as the lowest concentration of antibiotic that inhibits visible growth.
Assay [4] has as its system E. coli MG1655. The assay is described as follows: Metabolic suppression profiling (ChemArray). In kind it is cell-based.
Setting [5] is: absence of biotin, read-out: MIC −bio.
[6] abbreviates: presence of 2 nM of biotin, read-out: MIC +bio.
Where [7] appears, read: MG1655, 16 h, read-out: MIC +bio, presence of 2 nM of biotin.
The mark [8] stands for this setting: MG1655, read-out: MIC −bio, absence of biotin.

≈ marks a conversion by molar mass, not a printed value. Read-outs that look alike come from different tables or passages of the source. Some results are limits rather than exact numbers.

Sequence of recombinant E. coli BioA (P12995 whole entry): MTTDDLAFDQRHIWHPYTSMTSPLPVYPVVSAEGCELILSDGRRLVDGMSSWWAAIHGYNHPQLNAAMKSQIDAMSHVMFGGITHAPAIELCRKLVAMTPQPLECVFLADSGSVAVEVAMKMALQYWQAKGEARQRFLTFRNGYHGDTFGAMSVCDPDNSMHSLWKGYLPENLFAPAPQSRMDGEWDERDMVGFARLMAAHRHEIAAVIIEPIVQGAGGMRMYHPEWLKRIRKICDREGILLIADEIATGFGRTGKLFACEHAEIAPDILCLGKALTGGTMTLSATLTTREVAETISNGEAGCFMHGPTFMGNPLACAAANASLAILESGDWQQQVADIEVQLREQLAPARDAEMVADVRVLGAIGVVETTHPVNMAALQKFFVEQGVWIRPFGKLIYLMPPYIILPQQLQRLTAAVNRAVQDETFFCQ

Regarding `NNC(=O)CSc1ccncc1` [Compound 2i, 2-(pyridin-4-ylthio)acetohydrazide], the inhibition at 1 µM in assay [1] turned out to be 32%. In addition, the inhibition at 10 µM in assay [1] came to 77%. Further, the “antibacterial potency against M. smegmatis compared with MAC-0013772 (in words)” value in assay [2] is on record as “potencies similar to that of MAC-0013772”. Further, the MIC in assay [2] (setting [5]) is 8 µg/mL; in assay [2] (setting [6]) it was 128 µg/mL; in assay [3] (setting [7]), over 256 µg/mL; in assay [3] (setting [8]) it was 64 µg/mL (≈ 349 µM).

For `O=C(O)CNCP(=O)(O)O` [glyphosate, reference compound], the “metabolic suppression profile: metabolites that suppress growth inhibitory activity” value in assay [4] (4× MIC in M9 minimal media, ChemArray) is reported as “could only be achieved by providing a mixture of amino acids”. Moreover, the “suppression of growth inhibitory activity by pools containing the aromatic amino acids” value in assay [4] (expanded ChemArray) was “fully reversed”.

On to `NNC(=O)Cc1ccccc1[N+](=O)[O-]` [Compound 2j], for which, in assay [1], the inhibition at 1 µM was 0%. Further, in assay [1], the inhibition at 10 µM was found to be 29%. Also, the MIC in assay [2] (setting [5]) was 256 µg/mL; in assay [2] (setting [6]) it was over 256 µg/mL; in assay [3] (setting [7]), over 256 µg/mL; in assay [3] (setting [8]), over 256 µg/mL.

Take `CCC(=O)CSc1ccccc1[N+](=O)[O-]` [Compound 1k]: the inhibition at 1 µM in assay [1] came to 0%. Moreover, the inhibition at 10 µM in assay [1] was 0%. Also, the minimal inhibitory concentration (MIC) in assay [2] (setting [5]), in assay [2] (setting [6]), in assay [3] (setting [7]) and in assay [3] (setting [8]) was over 256 µg/mL throughout.

Turning to `NNC(=O)CSc1ccccc1F` [Compound 1d, 2-(2-fluorophenylthio)acetohydrazide], in assay [1], the inhibition at 1 µM was 36%. For the same molecule, in assay [1], the inhibition at 10 µM was 100%. In addition, in assay [2], the “antibacterial potency against M. smegmatis compared with MAC-0013772 (in words)” value is on record as “potencies similar to that of MAC-0013772”. In addition, the MIC was 4 µg/mL in assay [2] (setting [5]), over 256 µg/mL in assay [2] (setting [6]), over 256 µg/mL in assay [3] (setting [7]) and 32 µg/mL (≈ 160 µM) in assay [3] (setting [8]).

As for `CCC(=O)NN` [Compound 2d], the inhibition at 1 µM in assay [1] is 0%. The inhibition at 10 µM in assay [1] came out at 8%. The minimal inhibitory concentration (MIC) is 64 µg/mL in assay [2] (setting [5]), 64 µg/mL in assay [2] (setting [6]), over 256 µg/mL in assay [3] (setting [7]) and over 256 µg/mL in assay [3] (setting [8]).

As for `NNC(=O)CSc1ccccc1Cl` [Compound 1e, 2-(2-chlorophenylthio) acetohydrazide], the inhibition at 1 µM in assay [1] turned out to be 63%. The inhibition at 10 µM in assay [1] stood at 100%. Besides, in assay [2], the “antibacterial potency against M. smegmatis compared with MAC-0013772 (in words)” value is on record as “potencies similar to that of MAC-0013772”. The MIC in assay [2] (setting [5]) was 4 µg/mL; in assay [2] (setting [6]), over 256 µg/mL; in assay [3] (setting [7]) it was over 256 µg/mL; in assay [3] (setting [8]), 16 µg/mL (≈ 73.8 µM). In addition, the “antibacterial activity against E. coli (in words)” value in assay [3] is given as “does not gravely alter antibacterial activity”.

With `NC(=O)CSc1ccccc1[N+](=O)[O-]` [Compound 1l], in assay [1], the inhibition at 1 µM was 0%. The inhibition at 10 µM in assay [1] was 0%. Moreover, the MIC in assay [2] (setting [5]) is 128 µg/mL; in assay [2] (setting [6]), over 256 µg/mL; in assay [3] (setting [7]), over 256 µg/mL; in assay [3] (setting [8]) it was over 256 µg/mL.

In the case of `CC(=O)CSc1ccccc1[N+](=O)[O-]` [Compound 1m], in assay [1], the inhibition at 1 µM was determined as 0%. In assay [1], the inhibition at 10 µM is 0%. For the same molecule, the MIC was 256 µg/mL in assay [2] (setting [5]), 256 µg/mL in assay [2] (setting [6]), over 256 µg/mL in assay [3] (setting [7]) and over 256 µg/mL in assay [3] (setting [8]).

With `Cc1ccccc1SCC(=O)NN` [Compound 1h, 2-(o-tolylthio)acetohydrazide], the inhibition at 1 µM in assay [1] was 81%. The inhibition at 10 µM in assay [1] is 100%. In addition, the “antibacterial potency against M. smegmatis compared with MAC-0013772 (in words)” value in assay [2] is given as “potencies similar to that of MAC-0013772”. The MIC was 4 µg/mL in assay [2] (setting [5]), over 256 µg/mL in assay [2] (setting [6]), over 256 µg/mL in assay [3] (setting [7]) and 16 µg/mL (≈ 81.5 µM) in assay [3] (setting [8]). The “antibacterial activity against E. coli (in words)” value in assay [3] was “does not gravely alter antibacterial activity”.

Take `CCCC(=O)NN` [Compound 2c]: in assay [1], the inhibition at 1 µM stood at 1%. Further, the inhibition at 10 µM in assay [1] was determined as 40%. Besides, the MIC in assay [2] (read-out: MIC +bio) is 64 µg/mL; in assay [2] (read-out: MIC −bio), 64 µg/mL; in assay [3] (MG1655, read-out: MIC −bio), over 256 µg/mL.

Consider `NNC(=O)CSc1ccccc1O` [Compound 1f, 2-(2-hydroxyphenylthio)acetohydrazide], for which the inhibition at 1 µM in assay [1] was determined as 32%. In addition, the inhibition at 10 µM in assay [1] was 70%. The minimal inhibitory concentration (MIC) in assay [2] (setting [5]) was found to be 32 µg/mL; in assay [2] (setting [6]), 256 µg/mL; in assay [3] (setting [7]), 256 µg/mL; in assay [3] (setting [8]), 256 µg/mL (≈ 1290 µM).

On to `NNC(=O)CSc1cccc([N+](=O)[O-])c1` [Compound 1a, 2-(3-nitrophenylthio)acetohydrazide], for which the inhibition at 1 µM in assay [1] is 42%. The inhibition at 10 µM in assay [1] amounted to 84%. Also, the MIC in assay [2] (setting [5]) was 16 µg/mL; in assay [2] (setting [6]), over 256 µg/mL; in assay [3] (setting [7]) it was over 256 µg/mL; in assay [3] (setting [8]) it was 256 µg/mL (≈ 1130 µM).

In the case of `NNC(=O)CS` [Compound 2b], the inhibition at 1 µM in assay [1] is 20%. In addition, the inhibition at 10 µM in assay [1] turned out to be 34%. Besides, the minimal inhibitory concentration (MIC) amounted to 32 µg/mL in assay [2] (setting [5]), 32 µg/mL in assay [2] (setting [6]), 256 µg/mL in assay [3] (setting [7]) and 256 µg/mL (≈ 2410 µM) in assay [3] (setting [8]).
